Data: patent US20090253644A1, “Radiosensitizer” (TOYO SUISAN KAISHA, LTD., priority 2004, published 2009)
“Also recorded” adds a separate entry of the source.

Tests used:
[1] = test system: human tongue squamous carcinoma cells (SAS cells); experiment: Animal experiment: SAS tumor-transplanted nude mice, tumor growth delay with X-ray irradiation; assay type: in vivo; conditions: for enhancement ratio (ER): tumor volume 500 mm^3
Excerpt: Nude mice were assigned to four groups (control group; single use group of the present radiosensitizer administration; single use group of irradiation; and combined use group of irradiation and the present radiosensitizer administration; 4 mice per group). 1.0×10^6 human tongue squamous carcinoma cells (SAS cells) were suspended in PBS(−), and the suspension was transplanted subcutaneously into a right thigh of each mouse. After 10 to 14 days, when tumor volume became a desired value in a range of about 50 mm^3 to about 100 mm^3, each mouse was subjected to treatment according to each group. As a radiosensitizer, 3-O-(6-deoxy-6-sulfo-α-D-glucopyranosyl)-1-O-stearoyl-glycerol sodium salt (hereinafter, also referred to as “α-SQMG C18:0”) was used. Regarding the single use group of irradiation, X-ray was irradiated two times (at the time of treatment initiation (day 0) and on day 6 after the treatment initiation) at a dose of 8 Gy. Regarding the single use group of α-SQMG C18:0 administration, the sensitizer was intraperitoneally administered two times (day 0 and day 6) at a concentration of 1 mg/kg. Regarding the combined use group, each mouse of the group was treated with both of irradiation and α-SQMG C18:0 administration. Regarding the control group, neither irradiation nor α-SQMG C18:0 administration was performed. Thereafter, a short diameter and a long diameter of a tumor were measured with a micrometer caliper over a period of 16 to 23 days. Tumor volume was calculated by the following equation, and the tumor growth delaying effect was compared.
Equation for calculating tumor volume:
tumor volume (mm^3)=(short diameter)^2×(long diameter)×0.5
The same experiment as that of Experimental Example 1-1 was performed except that irradiation was performed at the time of treatment initiation (day 0) and on day 4 after the treatment initiation, administration of α-SQMG C18:0 was performed only on day 0, and measurement of tumor size was performed over a period of 26 days.
In order to express numerically this synergistic effect, ER (enhancement ratio) was calculated by the following equation. ER is a value defined by the literature (Int., J. Radiation Oncology Bio. Phys. Vol. 55, No. 3, pp. 713-723 (2003)), and ER will be explained below based on the definition.
ER=NGD÷TGD in the case of X-ray irradiation alone
In the equation, “TGD (tumor growth delay)” indicates delay of days necessary for tumor volume to reach a predetermined size in each test group as compared with a control group. That is, this is expressed by the following equation. In the Examples of the present invention, the predetermined size of tumor volume is 500 mm^3, unless otherwise indicated.
TGD=(number of days necessary for tumor volume to reach 500 mm^3 in test group)−(number of days necessary for tumor volume to reach 500 mm^3 in control group)
“NGD (normalized growth delay)” is expressed by the following equation.
NGD=(TGD in the case of combined use)−(TGD in the case of drug administration alone)
According to the aforementioned literature, it can be said that the anti-tumor effect is synergistic, when an enhancement ratio (ER) obtained by the above equation exceeds 1.0.
The same experiment as that of Experimental Example 1-1 was performed except that irradiation was performed at the time of treatment initiation (day 0) and on day 3 after the treatment initiation, α-SQMG C18:0 was administered once a day from day 0 to day 4, and measurement of tumor size was performed over a period of 35 days.
In the present Experimental Example, an experiment was performed in the same manner as in the above Experimental Example except that irradiation was performed at a dose of 2 Gy per fraction everyday from the time of treatment initiation (day 0) to day 4, and administration of α-SQMG C18:0 was performed everyday from day 0 to day 4. Details of the experiment will be described below.
Four nude mice (eight weeks old) were randomly assigned to each of four groups. […]

[2] = test system: human lung cancer cells (A549 cells); experiment: Animal experiment: A549 tumor-transplanted nude mice, tumor growth delay with X-ray irradiation; assay type: in vivo; conditions: Exp. Ex. 1-7: X-ray 4 Gy day 0 and day 3, 1 mg/kg i.p. once a day day 0 to 4
Method: In the present Experimental Example, an experiment was performed in the same manner as in the aforementioned Experimental Examples except that human lung cancer cells (A549 cells) were transplanted into a nude mouse. Details of the experiment will be described below.
Four nude mice (eight weeks old) were randomly assigned to each of four groups. 2.0×10^6 human lung cancer cells (A549 cells) were suspended in PBS (−), and the suspension was transplanted subcutaneously into a right thigh of each mouse. After 45 days, when tumor volume became about 50 mm^3, each mouse was subjected to treatment according to each group. As a radiosensitizer, α-SQMG C18:0 was used as in the aforementioned Experimental Examples. In a single use group of irradiation, X-ray was irradiated two times (at the time of treatment initiation (day 0) and on day 3 after the treatment initiation) at a dose of 4 Gy. In a single use group of α-SQMG C18:0 administration, α-SQMG C18:0 was intraperitoneally administered at a concentration of 1 mg/kg once a day at a total of 5 times from the time of treatment initiation (day 0) to day 4. […] Thereafter, a short diameter and a long diameter of a tumor were measured with a micrometer caliper over a period of 20 days. Tumor volume was calculated according to the following equation, and the tumor growth delaying effect was compared. […]

SAS cells = experiment: Colony assay on SAS cells; assay type: cell-based, human; conditions: same colony assay as Exp. Ex. 2-1 and 2-2
[3] = test system: angiogenesis (tube formation); experiment: Assay by angiogenesis kit (KZ-1000), tube formation; assay type: cell-based
Method: The anti-angiogenic effect obtained by combined use of 20 μM of α-SQMG C18:0 administration and 4 Gy of ^60Co γ-ray irradiation was investigated using an angiogenesis kit (“angiogenesis kit KZ-1000” of Kurabo Industries Ltd.).
A drug named Suramin is the known substance as a drug suppressing angiogenesis, and it is known that its action is to inhibit a growth factor receptor of a vascular endothelial cell. In the present Example, Suramin was used as a positive control at 50 μM.
As described above, the “theoretical additive point of combined use” is calculated by multiplication, and the theoretical value is compared with an actually measured value.

[4] = Exp. Ex. 1-2: X-ray 8 Gy day 0 and day 4, 1 mg/kg i.p. day 0 only
[5] = Exp. Ex. 1-3: X-ray 8 Gy day 0 and day 3, 1 mg/kg i.p. once a day day 0 to 4
[6] = 4 Gy 60Co γ-ray + α-SQMG C18:0 20 μM or Suramin 50 μM

What does the source list for `CCCCCCCCCCCCCCCCCC(=O)OCC(O)CO[C@H]1O[C@H](CS(=O)(=O)[O-])[C@@H](O)[C@H](O)[C@H]1O.[Na+]` (stereo partly drawn) [α-SQMG C18:0, 3-O-(6-deoxy-6-sulfo-α-D-glucopyranosyl)-1-O-stearoyl-glycerol sodium salt]?
anti-tumor effect (tumor volume), combined use with irradiation ([1]; Exp. Ex. 1-1: X-ray 8 Gy day 0 and day 6, 1 mg/kg i.p. day 0 and day 6): anti-tumor effect far exceeding the anti-tumor effect attained by irradiation; anti-tumor effect (tumor volume), combined use with irradiation [1, 4]: anti-tumor effect far exceeding the anti-tumor effect attained by irradiation; enhancement ratio (ER) [1, 4]: 2.0; anti-tumor effect (tumor volume), combined use with irradiation [1, 5]: anti-tumor effect far exceeding the anti-tumor effect attained by irradiation; enhancement ratio (ER) [1, 5]: 3.0; anti-tumor effect (tumor volume), combined use with irradiation ([1]; Exp. Ex. 1-4: X-ray 2 Gy once a day day 0 to 4 (total 10 Gy), 1 mg/kg i.p. once a day day 0 to 4): anti-tumor effect exceeding the anti-tumor effect attained by irradiation alone; enhancement ratio (ER) ([1]; Exp. Ex. 1-4: X-ray 2 Gy once a day day 0 to 4, 1 mg/kg i.p. once a day day 0 to 4): 1.8; enhancement ratio (ER) [2]: cannot be calculated; anti-tumor effect (tumor volume), combined use with irradiation ([2]; sodium salt, 1 mg/kg): anti-tumor effect exceeding the anti-tumor effect attained by irradiation alone; also recorded: increase in tumor volume is scarcely seen; cell proliferation suppressing effect on SAS cells (SAS cells): did not exert a cell proliferation suppressing effect; tube formation rate, Actually measured value, combined use [3, 6]: 0.0762; tube formation rate, Theoretical value (theoretical additive point of combined use) [3, 6]: 0.467; tube formation rate, use alone ([3]; α-SQMG C18:0 20 μM, Suramin 50 μM, no irradiation): 0.7229
